pIC50: −log10 of the molar value. Active and inactive are the calls of the source. The rule behind the calls is not given here.
Experiments:
[1] = target: T1, N-formyl peptide receptor 2 (Homo sapiens, UniProt P25090); assay: Agonist activity at ALX/FPR2 in human THP1 cells harboring NF-kB-Luc assessed as inhibition of LPS-induced NFkB signalling activation by measuring reduction in IFNgamma secretion pretreated for 30 mins followed by LPS stimulation for 24 hrs by electrochemiluminescence assay; type: cell-based; conditions: for pIC50: read-out: IC50
T1 sequence (P25090 whole entry): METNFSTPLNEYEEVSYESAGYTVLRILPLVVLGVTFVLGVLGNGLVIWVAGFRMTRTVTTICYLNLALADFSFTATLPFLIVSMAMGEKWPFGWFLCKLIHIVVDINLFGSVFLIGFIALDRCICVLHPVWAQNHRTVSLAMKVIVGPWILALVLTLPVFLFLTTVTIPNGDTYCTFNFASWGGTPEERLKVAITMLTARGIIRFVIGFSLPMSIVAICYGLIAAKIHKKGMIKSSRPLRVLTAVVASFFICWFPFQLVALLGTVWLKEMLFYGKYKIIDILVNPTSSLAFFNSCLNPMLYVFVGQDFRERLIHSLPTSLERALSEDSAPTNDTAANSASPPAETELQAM

[2] = target: T1, N-formyl peptide receptor 2; assay: Agonist activity at ALX/FPR2 in human THP1 cells harboring NF-kB-Luc assessed as inhibition of LPS-induced NFkB signalling activation by measuring reduction in IL-12p70 secretion pretreated for 30 mins followed by LPS stimulation for 24 hrs by electrochemiluminescence assay; type: cell-based; conditions: for pIC50: read-out: IC50
Homo sapiens [3] = species on record: Homo sapiens; assay: Activation of Luc-fused NFkB (unknown origin) expressed in non-stimulated human THP1 cells assessed as relative luminescence unit at 10^-6 M after 24 hrs by luciferase reporter gene assay (reference value: 100%); type: cell-based
Homo sapiens [4] = species on record: Homo sapiens; assay: Activation of Luc-fused NFkB (unknown origin) expressed in non-stimulated human THP1 cells assessed as relative luminescence unit at 10^-11 M after 24 hrs by luciferase reporter gene assay (reference value: 100%); type: cell-based
[5] = target: T1, N-formyl peptide receptor 2; assay: Agonist activity at ALX/FPR2 in human THP1 cells harboring NF-kB-Luc assessed as inhibition of LPS-induced NFkB signalling activation by measuring reduction in IL-1beta secretion pretreated for 30 mins followed by LPS stimulation for 24 hrs by electrochemiluminescence assay; type: cell-based; conditions: for pIC50: read-out: IC50
[6] = target: T1, N-formyl peptide receptor 2; assay: Agonist activity at ALX/FPR2 in human THP1 cells harboring NF-kB-Luc assessed as inhibition of LPS-induced NFkB signalling activation by measuring reduction in IL-6 secretion pretreated for 30 mins followed by LPS stimulation for 24 hrs by electrochemiluminescence assay; type: cell-based; conditions: for pIC50: read-out: IC50
Homo sapiens [7] = species on record: Homo sapiens; assay: Activation of Luc-fused NFkB (unknown origin) expressed in non-stimulated human THP1 cells assessed as relative luminescence unit at 10^-12 M after 24 hrs by luciferase reporter gene assay (reference value: 100%); type: cell-based
Homo sapiens [8] = species on record: Homo sapiens; assay: Activation of Luc-fused NFkB (unknown origin) expressed in non-stimulated human THP1 cells assessed as relative luminescence unit at 10^-8 M after 24 hrs by luciferase reporter gene assay (reference value: 100%); type: cell-based
Homo sapiens [9] = species on record: Homo sapiens; assay: Activation of Luc-fused NFkB (unknown origin) expressed in non-stimulated human THP1 cells assessed as relative luminescence unit at 10^-9 M after 24 hrs by luciferase reporter gene assay (reference value: 100%); type: cell-based
[10] = target: T1, N-formyl peptide receptor 2; assay: Agonist activity at ALX/FPR2 in human THP1 cells harboring NF-kB-Luc assessed as inhibition of LPS-induced NFkB signalling activation by measuring reduction in TNFalpha secretion pretreated for 30 mins followed by LPS stimulation for 24 hrs by electrochemiluminescence assay; type: cell-based; conditions: for pIC50: read-out: IC50
[11] = target: T1, N-formyl peptide receptor 2; assay: Agonist activity at ALX/FPR2 in human THP1 cells harboring NF-kB-Luc assessed as inhibition of LPS-induced NFkB signalling activation pretreated for 30 mins followed by LPS stimulation for 24 hrs by luciferase reporter gene assay; type: cell-based
Homo sapiens [12] = species on record: Homo sapiens; assay: Activation of Luc-fused NFkB (unknown origin) expressed in non-stimulated human THP1 cells assessed as relative luminescence unit at 10^-7 M after 24 hrs by luciferase reporter gene assay (reference value: 100%); type: cell-based
Homo sapiens [13] = species on record: Homo sapiens; assay: Activation of Luc-fused NFkB (unknown origin) expressed in non-stimulated human THP1 cells assessed as relative luminescence unit at 10^-10 M after 24 hrs by luciferase reporter gene assay (reference value: 100%); type: cell-based
HEK293 = assay: Induction of intracellular calcium accumulation in HEK293 cells at 0.01 nM to 100 nM by Fluo-4 dye based fluorescence spectrophotometric assay; type: functional, cell-based; conditions: Homo sapiens
THP-1 [14] = assay: Cytotoxicity against human THP1 cells harboring NFkB-Luc assessed as LDH release at 10'11 M after 24 hrs by spectrophotometric method relative to control; type: cell-based; conditions: thp-1, 24 h
THP-1 [15] = assay: Cytotoxicity against human THP1 cells harboring NFkB-Luc assessed as LDH release at 10'9 M after 24 hrs by spectrophotometric method relative to control; type: cell-based; conditions: thp-1, 24 h
THP-1 [16] = assay: Cytotoxicity against human THP1 cells harboring NFkB-Luc assessed as LDH release at 10'12 M after 24 hrs by spectrophotometric method relative to control; type: cell-based; conditions: thp-1, 24 h
THP-1 [17] = assay: Cytotoxicity against human THP1 cells harboring NFkB-Luc assessed as LDH release at 10'8 M after 24 hrs by spectrophotometric method relative to control; type: cell-based; conditions: thp-1, 24 h
THP-1 [18] = assay: Cytotoxicity against human THP1 cells harboring NFkB-Luc assessed as LDH release at 10'10 M after 24 hrs by spectrophotometric method relative to control; type: cell-based; conditions: thp-1, 24 h
THP-1 [19] = assay: Cytotoxicity against human THP1 cells harboring NFkB-Luc assessed as LDH release at 10'6 M after 24 hrs by spectrophotometric method relative to control; type: cell-based; conditions: thp-1, 24 h
THP-1 [20] = assay: Cytotoxicity against human THP1 cells harboring NFkB-Luc assessed as LDH release at 10'7 M after 24 hrs by spectrophotometric method relative to control; type: cell-based; conditions: thp-1, 24 h

| pIC50 [1] | pIC50 [2] | pIC50 [5] | IC50 [6] | IC50 [10] | pIC50 [11] | IC50 [1] | IC50 [5] | pIC50 [6] | pIC50 [10] | SMILES | Activity (Homo sapiens [3]) [%] | Activity (Homo sapiens [4]) [%] | Activity (Homo sapiens [7]) [%] | Activity (Homo sapiens [8]) [%] | Activity (Homo sapiens [9]) [%] | Activity (Homo sapiens [12]) [%] | Activity (Homo sapiens [13]) [%] | also measured |
| --- | --- | --- | --- | --- | --- | --- | --- | --- | --- | --- | --- | --- | --- | --- | --- | --- | --- | --- |
| 9.05 | 8.22 | 8.44 | Not Active | Not Active | 7.50 |  |  |  |  | CCC[C@H](O)c1c(/C=C/[C@@H](O)[C@@H](O)CCCC(=O)OC)nc(C)n1C | 1.3 | 1.9 | 1.4 | 1.6 | 1.7 | 1.4 | 3.2 |  |
|  |  |  | Not Active | Not Active | 7.56 | Not Active | Not Active |  |  | COC(=O)CCC[C@H](O)[C@H](O)/C=C/c1nc(C)n(C)c1[C@H](C)O | 2.4 |  | 3.1 |  | 3.4 | 3.5 | 4.5 | IC50 [2]: Not Active |
| 8.60 | 8.29 | 8.49 |  |  | 7.16 |  |  | 7.50 | 8.17 | CCCCC[C@H](O)c1nc(-c2ccccc2)oc1/C=C/[C@@H](O)[C@@H](O)CCCC(=O)OC(C)C | 6.1 | 4.5 | 6.2 | 4.3 | 5.3 | 4 | 6.2 | Activity (HEK293): inactive; fold change (FC) (THP-1 [14]): 1.1; fold change (FC) (THP-1 [15]): 0.9; fold change (FC) (THP-1 [16]): 1.1; fold change (FC) (THP-1 [17]): 1; fold change (FC) (THP-1 [18]): 1; fold change (FC) (THP-1 [19]): 1; fold change (FC) (THP-1 [20]): 1 |
|  | 8.42 |  | Not Active | Not Active | 7.56 | Not Active | Not Active |  |  | COC(=O)CCC[C@H](O)[C@H](O)/C=C/c1nc(C)n(C)c1[C@@H](C)O | 9.6 | 8.8 | 9.7 | 10.4 | 8.8 | 9.4 | 9.3 |  |
|  |  |  |  |  | 7.43 | Not Active | Not Active | 8.17 | 8.19 | CCCCC[C@@H](O)c1nc(-c2ccccc2)oc1/C=C/[C@@H](O)[C@@H](O)CCCC(=O)OC(C)C | 2.7 | 2.8 | 3.4 | 2.6 | 2.7 | 3 | 3.2 | IC50 [2]: Not Active |
| 8.37 | 8.47 | 8.43 |  |  | 7.39 |  |  | 7.25 | 8.32 | CCC[C@@H](O)c1c(/C=C/[C@@H](O)[C@@H](O)CCCC(=O)OC)nc(C)n1C | 0.9 | 1.6 | 1.8 |  | 2.2 | 1.4 | 1.8 |  |
| 8.66 | 10.00 | 8.59 |  |  | 7.60 |  |  | 7.22 | 8.47 | CCCCC[C@H](O)c1c(/C=C/[C@@H](O)[C@@H](O)CCCC(=O)OC)nc(C)n1C | 5.5 | 4.4 | 5.2 |  | 4.6 | 3.7 | 8.9 |  |

Reference: ChEMBL document CHEMBL4382216, “Asymmetric synthesis and biological evaluation of imidazole- and oxazole-containing synthetic lipoxin A4 mimetics (sLXms)” (Eur J Med Chem, 2019)
